In general, TGI refers to the concentration at which net growth stops. A lower TGI goes with more potent growth arrest. As usually defined, the GI50 is the concentration at which growth is held to half of that of the control.

Molecules are shown by their SMILES. “And” between values parts separate entries of the source, which are not always exact repeats. Equal values may be shown once.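 Interpolation was linear, between the two tested concentrations surrounding the appropriate level; five concentrations were tested over 48 hours in 96-well plates. GI50 marks 50% less growth. At the TGI there is no net growth.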

The source of these data is PubChem BioAssay (NCI).

Test in all cases: DTP human tumour cell line panel, 48 h
Test [1] concerns SK-OV-3 ovarian.
In test [2] the test system is UACC-257 melanoma.
The test system of test [3] is SW-620 colon.
In test [4] the test system is OVCAR-8 ovarian.
In test [5] the test system is OVCAR-4 ovarian.
The subject of test [6] is SK-MEL-5 melanoma.
For test [7], the system named is UO-31 renal.
Test [8] deals with OVCAR-3 ovarian.
Test [9] concerns MCF7 breast.
Test [10] deals with A498 renal.
Test [11] has as its system HCT-116 colon.

As to `Cc1cn(C2CC(N)C(CN)O2)c(=O)[nH]c1=O` (stereo not given), the TGI in [1], in test [2], in [3], in [4], in test [5] and in [6] was more than 100 µM throughout. The TGI in test [7], in test [8], in [9], in [10] and in test [11] was more than 100 µM throughout.

Turning to `Clc1nc(Cl)nc(NC23CC4CC(CC(C4)C2)C3)n1`, the TGI in [1] is more than 57.1 µM; in test [2], 42.3 µM; in [3], 31.5 µM; in test [4] it was 34.9 µM; in test [5], 39.2 µM; in [6], 26.6 µM. In addition, the TGI in test [7] was 23.5 µM; in test [8], 37.7 µM; in test [9], more than 64.3 µM; in [10], more than 58.3 µM; in test [11] it was 31.3 µM.

With `CC(=O)C(CN1CCCCC1)C(c1ccccc1)c1c(O)c2ccccc2oc1=O` (stereo not given), the TGI in test [1], in test [2], in [3], in [4], in test [5] and in test [6] was more than 100 µM throughout. For the same compound, the TGI in [7], in test [8], in [9], in [10] and in test [11] was more than 100 µM each time.

Take `CCOC(=O)c1cc(=C2\CCN(CC(C)CC)C2=S)/c(=C(/O)CC)[nH]1` (stereo not given): the TGI in test [1] came to 48.4 µM; in test [2], 31.4 µM; in test [3], 25.9 µM; in test [4], 56.6 µM; in test [5], 30.9 µM; in test [7], 35.4 µM. Also, the TGI came to 61 µM in [9], 29 µM in test [10] and 28.7 µM in [11].

For `CCCCc1c(O)nc(Nc2nc3ccccc3[nH]2)[nH]c1=O`, the TGI in test [1], in test [2], in test [3], in [4], in test [5] and in [6] was more than 100 µM in each case. In addition, the TGI in test [8], in test [9], in test [10] and in test [11] was more than 100 µM each time.

On to `CC(=O)NC1C(OCc2ccccc2)OC(CO)C(O)C1OCC(=O)N[C@@H](C)C(=O)N[C@H](CCC(=O)NCCNCCNc1c2ccccc2nc2cccc([N+](=O)[O-])c12)C(N)=O` (stereo not given in full), for which the TGI in test [1] was more than 100 µM; in [2], 43 µM; in [3] it was more than 100 µM; in [4], more than 100 µM; in test [5], 40.2 µM; in test [6] it was 39.5 µM. The TGI in [7] was more than 100 µM; in test [8] it was more than 100 µM; in test [9] it was more than 100 µM; in test [10], 48.1 µM; in [11] it was 54.8 µM.

Regarding `COc1ccc(N2C(=O)C3c4[nH]c5ccc([N+](=O)[O-])cc5c4C4CCC(C(C)(C)C)CC4C3C2=O)cc1` (stereo not given), the TGI was more than 100 µM in [1]; more than 100 µM in test [2]; more than 100 µM in test [3]; more than 100 µM in test [4]; more than 100 µM in [5]; 33.8 µM in test [6]. In addition, the TGI is 51.6 µM in test [7]; 49.5 µM in test [8]; more than 100 µM in [9]; 7.56 µM in test [10]; 23.9 µM in test [11].

In the case of `COc1ccc(-c2c(C#N)c(N)n(C3OC(CO)C(O)C(O)C3O)c(=S)c2C#N)cc1` (stereo not given), the TGI in test [1], in test [2], in [3], in test [4], in test [5] and in test [6] was more than 100 µM in each case. Moreover, the TGI in [7], in test [8], in test [9], in test [10] and in [11] was more than 100 µM throughout. For the same compound, the GI50 in test [9] was > 100 µM and 38.4 µM.

For the compound `Cc1sc2nc3n(c(=O)c2c1C)N=CN(c1ccccc1)C3`, the TGI in test [1], in [2], in test [3], in test [4], in test [5] and in test [6] was more than 100 µM throughout. The TGI in [7], in [8], in [9], in [10] and in test [11] was more than 100 µM each time.

Consider `COc1ncc(C=C(C#N)C#N)c(OC)n1`, for which the TGI is more than 100 µM in [1]; 57.8 µM in test [2]; more than 100 µM in test [3]; 62 µM in [4]; more than 100 µM in test [5]; more than 100 µM in test [6]. Also, the TGI is 56.8 µM in [7]; more than 100 µM in test [8]; more than 100 µM in [9]; more than 100 µM in test [10]; 74.9 µM in test [11].

For the compound `COC(=O)C1(Cc2ccccc2)Cc2cc3c(cc2C1=O)CCC3` (stereo not given), the TGI was more than 100 µM in test [1]; more than 100 µM in test [2]; more than 100 µM in [3]; more than 100 µM in test [4]; more than 100 µM in test [5]; 33 µM in test [6]. For the same compound, the TGI is more than 100 µM in test [7]; more than 100 µM in test [8]; 42.9 µM in test [9]; 82 µM in test [10]; more than 100 µM in test [11].

In the case of `CC(C)=CCN1CC(C)C(=O)Nc2cc(Cl)ccc21` (stereo not given), the TGI in test [1] came out at 84.4 µM; in [2], 36 µM; in [3], 67.9 µM; in test [4], 79.4 µM; in [5], 83.9 µM; in [6], 26.5 µM. In addition, the TGI in [7] was more than 100 µM; in test [8], 32.9 µM; in test [9], 44.6 µM; in [10], more than 100 µM; in test [11], 31.9 µM.
